From patent publication US6355647B1, “3-substituted 3,4,5,7-tetrahedropyrrolo[3′,4′:4,5]thieno-[2,3-d]pyrimidine derivatives, their preparation and use” (Abbott Laboratories, priority 1997, dated 2002)

Experiments:
[1] = test system: serotonin release in the cortex; conditions: after systemic administration; cited from earlier work
[2] = test system: serotonin release in the dorsal raphe nucleus; conditions: rat; combined with paroxetine; cited from earlier work

Structure (SMILES)	melting point [°C]	serotonin release in the cortex [1]	effect of paroxetine on serotonin release in the dorsal raphe nucleus [2]
CCOC(=O)N1Cc2sc3ncn(CCN4CCN(c5cccc6c5CCC6)CC4)c(=O)c3c2C1	149		
CCOC(=O)N1Cc2sc3ncn(CCCN4CCN(c5ccccc5C#N)CC4)c(=O)c3c2C1	190		
COc1ccc(NC(=O)c2ccc(-c3ccc(-c4noc(C)n4)cc3C)cc2)cc1N1CCN(C)CC1 [GR 127 935]		reduces serotonin release	potentiated
CCOC(=O)N1Cc2sc3ncn(CCN4CCN(c5ccccc5Cl)CC4)c(=O)c3c2C1	172		
CCOC(=O)N1Cc2sc3ncn(CCN4CCN(c5ncccn5)CC4)c(=O)c3c2C1	166		
CCOC(=O)N1Cc2sc3ncn(CCN4CCN(c5ccccc5C)CC4)c(=O)c3c2C1	152		
CCOC(=O)N1Cc2sc3ncn(CCN4CCN(c5cccc6ccccc56)CC4)c(=O)c3c2C1	190 to 192		
